# Experimental data published in ChEMBL document CHEMBL1124752, “Cyclobut-A and cyclobut-G: broad-spectrum antiviral agents with potential utility for the therapy of AIDS” (J Med Chem, 1990).
# How the values were obtained:
# [1] = test system: Human immunodeficiency virus 1; assay: Tested for the determination of percentage toxicity at 10 uM against HIV-1 in ATH8 cells; assay type: organism-based; details: human immunodeficiency virus 1, ath-8, 10 µM
# [2] = test system: Human immunodeficiency virus 1; assay: Tested for the determination of percentage protection atuM against HIV-1 in ATH8 Cells; assay type: functional
# [3] = test system: Human immunodeficiency virus 1; assay: Tested for the determination of percentage toxicity at 500 uM against HIV-1 in ATH8 cells; assay type: organism-based; details: human immunodeficiency virus 1, ath-8, 500 µM
# [4] = test system: Human immunodeficiency virus 1; assay: Tested for the determination of percentage protection at 100 uM against HIV-1 in ATH8 cells; assay type: functional, ATH-8
# [5] = test system: Human immunodeficiency virus 1; assay: Tested for the determination of percentage toxicity at 2 uM against HIV-1 in ATH8 cells; assay type: organism-based; details: human immunodeficiency virus 1, ath-8, 2 µM
# [6] = test system: Human immunodeficiency virus 1; assay: Tested for the determination of percentage protection atuM against HIV-1 in ATH8 cells; assay type: functional, ATH-8
# [7] = test system: Human immunodeficiency virus 1; assay: Tested for the determination of percentage toxicity at 100 uM against HIV-1 in ATH8 cells; assay type: organism-based; details: human immunodeficiency virus 1, ath-8, 100 µM
# [8] = test system: Human immunodeficiency virus 1; assay: Tested for the determination of percentage protection at 10 uM against HIV-1 in ATH8; assay type: functional
smiles,measurement,setting,value
Nc1nc2c(ncn2[C@H]2CC[C@@H](CO)O2)c(=O)[nH]1,Cytotoxicity,[1],0%
same,Protection,[2],54%
same,Cytotoxicity,[3],50%
same,Protection,[4],99%
same,Cytotoxicity,[5],0%
same,Protection,[6],48%
same,Cytotoxicity,[7],4%
same,Protection,[8],100%
